Results from ChEMBL document CHEMBL3856212, “Synthesis, anti-proliferative and genotoxicity studies of 6-chloro-5-(2-substituted-ethyl)-1,3-dihydro-2H-indol-2-ones and 6-chloro-5-(2-chloroethyl)-3-(alkyl/ary-2-ylidene)indolin-2-ones” (Eur J Med Chem, 2016).

Key:
[1] = Cytotoxicity against human MCF7 cells assessed as assessed as growth inhibition at 10^-5 M after 48 hrs by SRB assay relative to control; format: functional; conditions: MCF7, 48 h, read-out: GI
[2] = Cytotoxicity against human HCC2998 cells assessed as growth inhibition after 48 hrs by SRB assay; format: functional; conditions: HCC 2998, 48 h
[3] = Cytotoxicity against human HT-29 cells assessed as assessed as growth inhibition at 10^-5 M after 48 hrs by SRB assay relative to control; format: functional; conditions: HT-29, 48 h, read-out: GI
[4] = Cytotoxicity against human ACHN cells assessed as assessed as growth inhibition at 10^-5 M after 48 hrs by SRB assay relative to control; format: functional; conditions: read-out: GI
[5] = Cytotoxicity against human HCT116 cells assessed as assessed as growth inhibition at 10^-5 M after 48 hrs by SRB assay relative to control; format: functional; conditions: HCT-116, 48 h, read-out: GI
[6] = Cytotoxicity against human U251 cells assessed as assessed as growth inhibition at 10^-5 M after 48 hrs by SRB assay relative to control; format: functional; conditions: U-251, 48 h, read-out: GI
[7] = Cytotoxicity against human MDA-MB-231 cells assessed as assessed as growth inhibition at 10^-5 M after 48 hrs by SRB assay relative to control; format: functional; conditions: MDA-MB-231, 48 h, read-out: GI
[8] = Induction of apoptosis in mouse EAC cells at 375 uM after 24 hrs by acridine orange dye-based fluorescence microscopy (reference value: 0.66 +/- 0.33%); format: cell-based; conditions: ehrlich
[9] = Cytotoxicity against human SNB75 cells assessed as assessed as growth inhibition at 10^-5 M after 48 hrs by SRB assay relative to control; format: functional; conditions: SNB-75, 48 h, read-out: GI
[10] = Cytotoxicity against human SK-MEL-2 cells assessed as assessed as growth inhibition at 10^-5 M after 48 hrs by SRB assay relative to control; format: functional; conditions: SK-MEL-2, 48 h, read-out: GI
[11] = Cytotoxicity against human HOP62 cells assessed as growth inhibition after 48 hrs by SRB assay; format: functional; conditions: HOP-62, 48 h
Mus musculus [12] = organism: Mus musculus; experiment: Genotoxicity in mouse EAC cells at 250 uM after 24 hrs by micronucleus assay (reference value: 3.5 +/- 0.30%); format: toxicity, cell-based; conditions: ehrlich
[13] = Cytotoxicity against human NCI-H460 cells assessed as assessed as growth inhibition at 10^-5 M after 48 hrs by SRB assay relative to control; format: functional; conditions: NCI-H460, 48 h, read-out: GI
[14] = Cytotoxicity against human SNB19 cells assessed as growth inhibition after 48 hrs by SRB assay; format: functional; conditions: SNB-19, 48 h
[15] = Cytotoxicity against human SKOV3 cells assessed as growth inhibition after 48 hrs by SRB assay; format: functional; conditions: SK-OV-3, 48 h
[16] = Cytotoxicity against human HCC2998 cells assessed as assessed as growth inhibition at 10^-5 M after 48 hrs by SRB assay relative to control; format: functional; conditions: HCC 2998, 48 h, read-out: GI
[17] = Cytotoxicity against human HOP62 cells assessed as assessed as growth inhibition at 10^-5 M after 48 hrs by SRB assay relative to control; format: functional; conditions: HOP-62, 48 h, read-out: GI
[18] = Cytotoxicity against human SNB75 cells assessed as growth inhibition after 48 hrs by SRB assay; format: functional; conditions: SNB-75, 48 h
[19] = Cytotoxicity against human NCI-ADR-RES cells assessed as growth inhibition after 48 hrs by SRB assay; format: functional
[20] = Cytotoxicity against human MDA-MB-231 cells assessed as growth inhibition after 48 hrs by SRB assay; format: functional; conditions: MDA-MB-231, 48 h
[21] = Cytotoxicity against human BT549 cells assessed as growth inhibition after 48 hrs by SRB assay; format: functional; conditions: BT-549, 48 h
[22] = Cytotoxicity against human LOXIMVI cells assessed as growth inhibition after 48 hrs by SRB assay; format: functional; conditions: LOX IMVI
[23] = Cytotoxicity against human TK10 cells assessed as assessed as growth inhibition at 10^-5 M after 48 hrs by SRB assay relative to control; format: functional; conditions: TK-10, 48 h, read-out: GI
[24] = Cytotoxicity against human MALME-3M cells assessed as assessed as growth inhibition at 10^-5 M after 48 hrs by SRB assay relative to control; format: functional; conditions: read-out: GI
[25] = Cytotoxicity against human KM12 cells assessed as assessed as growth inhibition at 10^-5 M after 48 hrs by SRB assay relative to control; format: functional; conditions: KM12, 48 h, read-out: GI
[26] = Cytotoxicity against human Caki1 cells assessed as assessed as growth inhibition at 10^-5 M after 48 hrs by SRB assay relative to control; format: functional; conditions: CAKI-1, 48 h, read-out: GI
[27] = Cytotoxicity against human MDA-MB-435 cells assessed as growth inhibition after 48 hrs by SRB assay; format: functional; conditions: MDA-MB-435, 48 h, read-out: LD50 (the source's name)
Mus musculus [28] = organism: Mus musculus; experiment: Genotoxicity in mouse EAC cells at 500 uM after 24 hrs by micronucleus assay (reference value: 3.5 +/- 0.30%); format: toxicity, cell-based; conditions: ehrlich
[29] = Cytotoxicity against human NCI-H460 cells assessed as growth inhibition after 48 hrs by SRB assay; format: functional; conditions: NCI-H460, 48 h
[30] = Cytotoxicity against human SKOV3 cells assessed as assessed as growth inhibition at 10^-5 M after 48 hrs by SRB assay relative to control; format: functional; conditions: SK-OV-3, 48 h, read-out: GI
Mus musculus [31] = organism: Mus musculus; experiment: Genotoxicity in mouse EAC cells at 375 uM after 24 hrs by micronucleus assay (reference value: 3.5 +/- 0.30%); format: toxicity, cell-based; conditions: ehrlich
[32] = Cytotoxicity against human UACC257 cells assessed as assessed as growth inhibition at 10^-5 M after 48 hrs by SRB assay relative to control; format: functional; conditions: UACC-257, 48 h, read-out: GI
[33] = Cytotoxicity against human NCI-H23 cells assessed as assessed as growth inhibition at 10^-5 M after 48 hrs by SRB assay relative to control; format: functional; conditions: NCI-H23, 48 h, read-out: GI
[34] = Cytotoxicity against human UACC257 cells assessed as growth inhibition after 48 hrs by SRB assay; format: functional; conditions: UACC-257, 48 h, read-out: LD50 (the source's name)
[35] = read-out: LD50 (the source's name)

O=C1Cc2cc(CCn3ccnc3)c(Cl)cc2N1
inhibition of growth at 10 µM [1]: 77.1% | GI50 [2]: 3.22 µM | TGI [2]: > 1 µM | CC50 [2, 35]: > 1 µM | inhibition of growth at 10 µM [3]: 1.22% | inhibition of growth at 10 µM [4]: 21.7% | inhibition of growth at 10 µM [5]: 28% | inhibition of growth at 10 µM [6]: 32.7% | inhibition of growth at 10 µM [7]: 54.5% | Activity [8]: 0.66% | inhibition of growth at 10 µM [9]: 31.7% | inhibition of growth at 10 µM [10]: 19.3% | GI50 [11]: 3.32 µM | TGI [11]: > 1 µM | CC50 [11, 35]: > 1 µM | Activity (Mus musculus [12]): 2.83% | inhibition of growth at 10 µM [13]: 52.6% | GI50 [14]: 2.21 µM | TGI [14]: > 1 µM | CC50 [14, 35]: > 1 µM | GI50 [15]: 1.81 µM | TGI [15]: > 1 µM | CC50 [15, 35]: > 1 µM | inhibition of growth at 10 µM [16]: 28.5% | inhibition of growth at 10 µM [17]: 33.1% | GI50 [18]: 2.16 µM | TGI [18]: > 1 µM | CC50 [18, 35]: > 1 µM | GI50 [19]: 5.46 µM | TGI [19]: > 1 µM | CC50 [19, 35]: > 1 µM | GI50 [20]: 5.18 µM | TGI [20]: > 1 µM | CC50 [20, 35]: > 1 µM | GI50 [21]: 9.51 µM | TGI [21]: > 1 µM | CC50 [21, 35]: > 1 µM | GI50 [22]: 8.53 µM | TGI [22]: > 1 µM | CC50 [22, 35]: > 1 µM | inhibition of growth at 10 µM [23]: -23.4% | inhibition of growth at 10 µM [24]: 2.24% | inhibition of growth at 10 µM [25]: 67.8% | inhibition of growth at 10 µM [26]: 36.3% | CC50 [27]: > 1 µM | Activity (Mus musculus [28]): 4.83% | GI50 [29]: 1.61 µM | TGI [29]: > 1 µM | CC50 [29, 35]: > 1 µM | inhibition of growth at 10 µM [30]: 21.4% | Activity (Mus musculus [31]): 3.43% | inhibition of growth at 10 µM [32]: 39.8% | inhibition of growth at 10 µM [33]: 73.3% | CC50 [34]: > 1 µM
